Measurements as given in patent US5250524A, “Bile acid derivatives, process for their preparation and use of these compounds as pharmaceuticals” (Hoechst Aktiengesellschaft, priority 1990, dated 1993).
Like-named read-outs stand apart in the source and are kept apart here.

Target: T1, Na^+ -dependent bile acid transport system (Oryctolagus cuniculus, UniProt Q28727)
T1 construct: Preparation of brush-border membrane vesicles from the ileum of rabbits; from tissue; host or cells: brush-border membrane vesicles from the terminal small intestine (ileum) of male New Zealand rabbits
T1 sequence (Q28727 1-347): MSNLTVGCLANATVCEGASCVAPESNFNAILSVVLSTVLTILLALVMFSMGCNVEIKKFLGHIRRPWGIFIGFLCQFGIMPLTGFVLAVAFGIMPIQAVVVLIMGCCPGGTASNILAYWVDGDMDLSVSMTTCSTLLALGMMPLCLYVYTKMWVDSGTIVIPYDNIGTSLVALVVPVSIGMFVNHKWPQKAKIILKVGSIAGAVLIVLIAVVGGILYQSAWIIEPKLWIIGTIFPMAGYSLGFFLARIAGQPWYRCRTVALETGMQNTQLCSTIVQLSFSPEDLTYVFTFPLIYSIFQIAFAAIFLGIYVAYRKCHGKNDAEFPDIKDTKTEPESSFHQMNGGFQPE
Assay: Inhibition of Na^+ -dependent [^3 H]taurocholate absorption into brush-border membrane vesicles of the ileum
Format: biochemical, rabbit
Settings: taurocholate 50 μM, pH 7.4, customarily 1 min
Protocol: The pharmacological data include a series of -tests in which the interaction of the compounds according to the invention with the intestinal bile acid transport system was investigated in the terminal small intestine:
1. Preparation of brush-border membrane vesicles from the ileum of rabbits
The preparation of brush-border membrane vesicles from the intestinal cells of the small intestine was carried out using the so-called Mg^2+ precipitation method. Male New Zealand rabbits (2-2.5 kg body weight) were sacrificed by intravenous injection of 0.5 ml of an aqueous solution of 2.5 mg of tetracaine HCl, 100 T 61® and 25 mg of mebezonium iodide. The small intestine was removed and rinsed with ice-cold physiological saline solution. The terminal […] of the small intestine (measured in the oral-rectal direction, i.e. the terminall ileum, which contains the active Na^+ -dependent bile acid transport system) were used for preparation of the brush-border membrane vesicles. The intestines were frozen at -80° C. under nitrogen in plastic bags. The frozen intestines were thawed in a water bath at 30° C. in order to prepare the membrane vesicles. The mucosa was scraped off and suspended in 60 ml of ice-cold 12 mM trio/HCl buffer (pH 7.1)/300 mM mannitol, 5 mM EGTA/10 mg/l of phenylmethylsulfonyl fluoride/1 mg/1 of soybean trypsin inhibitor (32 U/mg)/0.5 mg/l of bovine lung trypsin inhibitor (193 U/mg)/0.5 mg/l of bacitracin. After diluting to 300 ml with ice-cold distilled water, the suspension was homogenized with ice-cooling for 3 minutes at 75% of maximum power using an Ultraturrax (18 rod, IKA Werk Staufen, Federal Republic of Germany). After addition of 3 ml of 1M MgCl2 solution (final Concentration 10 mM), the homogenate was allowed to stand at 0° C. for exactly 1 minute. As a result of addition of Mg^2+, the cell membranes aggregate and precipitate with the exception of the brush-border membranes. After centrifugation at 3,000×g (5,000 rpm, SS-34 rotor) for 15 minutes, the precipitate is discarded and the supernatant which contains the brush-border membranes is centrifuged at 26,700×g (15,000 rpm, SS-34 rotor) for 30 minutes. The supernatant was discarded, and the precipitate was rehomogenized in 60 ml of 12 mM tris/HCl buffer (pH 7.1)/60 mM mannitol, 5 mM EGTA using a Potter Elvejhem homogenizer (Braun Melsungen, 900 rpm, 10 strokes). After addition of 0.1 ml of 1M MgCl2 solution and an incubation time of 15 minutes at 0° C., the mixture was again centrifuged at 3,000×g for 15 minutes. The supernatant was then again centrifuged at […] ( 15,000 rpm, SS-34 rotor) for 30 minutes. The precipitate was taken up in 30 ml of 10 mM tris/hepes buffer (pH 7.4) /300 mM mannitol and homogeneously resuspended by 20 strokes in a Potter Elvejhem homogenizer at 1,000 rpm. After centrifugation at 48,000×g (20,000 rpm, SS-34 rotor) for 30 minutes, the precipitate was taken up in 0.5 to 2 ml of tris/hepes buffer (pH 7.4)/280 mM mannitol (final concentration 20 mg/ml) and resuspended with the aid of a tuberculin syringe using a 27 gauge needle. The vesicles were either used immediately after preparation for transport investigations or stored at -196° C. in liquid nitrogen in 4 mg portions.
2. Inhibition of Na^+ -dependent [^3 H]taurocholate absorption into brush-border membrane vesicles of the ileum
The absorption of substrates into brush-border membrane vesicles was determined by means of the so-called membrane filtration technique. 10 μl of the vesicle suspension (100 μg of protein) were pipetted on the wall of a polystyrene incubation tube (11×70 mm) as a drop which contained the incubation medium together with the corresponding ligands (90 μl). […]

[1] = IC50, [^3 H]taurocholate absorption, rabbit ileum brush-border membrane vesicles
[2] = IC50 Na, Na^+ -dependent transport component (difference between absorption in Na-T-B and K-T-B)
[3] = Na^+ -dependent transport component (difference between absorption in Na-T-B and K-T-B), read-out: IC50 Na
[4] = [^3 H]taurocholate absorption, rabbit ileum brush-border membrane vesicles, read-out: IC50

Row | SMILES | IC50 [1] [µM] | IC50 [2] [µM] | IC50 [3] [µM] | IC50 [4] [µM]
1 | C[C@H](CCC(=O)NCCCNC(=O)CCC(=O)NCCO[C@H]1CC[C@@]2(C)[C@@H](C1)C[C@@H](O)[C@@H]1[C@@H]2C[C@H](O)[C@]2(C)[C@@H]([C@H](C)CCC(=O)NCCS(=O)(=O)O)CC[C@@H]12)[C@H]1CC[C@H]2[C@@H]3[C@H](O)C[C@@H]4C[C@H](OCc5ccccc5)CC[C@]4(C)[C@H]3C[C@H](O)[C@]12C [172 (taurine conj.)] | 32 | 20 | – | –
2 | C[C@H](CCC(=O)NCC(=O)O)[C@H]1CC[C@H]2[C@@H]3[C@H](O)C[C@@H]4C[C@@H](OCCNC(=O)CCC(=O)NCCCNC(=O)CC[C@@H](C)[C@H]5CC[C@H]6[C@@H]7[C@H](O)C[C@@H]8C[C@H](OCc9ccccc9)CC[C@]8(C)[C@H]7C[C@H](O)[C@]56C)CC[C@]4(C)[C@H]3CC[C@]12C [191 (glycine conj.)] | 27 | 18 | – | –
3 | C[C@H](CCC(=O)NCCS(=O)(=O)O)[C@H]1CC[C@H]2[C@@H]3[C@H](O)C[C@@H]4C[C@@H](OCCNC(=O)CCC(=O)NCCCNC(=O)CC[C@@H](C)[C@H]5CC[C@H]6[C@@H]7[C@H](O)C[C@@H]8C[C@H](OCc9ccccc9)CC[C@]8(C)[C@H]7C[C@H](O)[C@]56C)CC[C@]4(C)[C@H]3CC[C@]12C [191 (taurine conj.)] | 18 | 14 | – | –
4 | C[C@H](CCC(=O)NCCO[C@H]1CC[C@@]2(C)[C@@H](C1)C[C@@H](O)[C@@H]1[C@@H]2C[C@H](O)[C@]2(C)[C@@H]([C@H](C)CCC(=O)NCC(=O)O)CC[C@@H]12)[C@H]1CC[C@H]2[C@@H]3[C@H](O)C[C@@H]4C[C@H](O)CC[C@]4(C)[C@H]3C[C@H](O)[C@]12C [368 (glycine conj.)] | 48 | 16 | – | –
5 | C[C@H](CCC(=O)NCCO[C@H]1CC[C@@]2(C)[C@@H](C1)C[C@@H](O)[C@@H]1[C@@H]2C[C@H](O)[C@]2(C)[C@@H]([C@H](C)CCC(=O)NCCS(=O)(=O)O)CC[C@@H]12)[C@H]1CC[C@H]2[C@@H]3[C@H](O)C[C@@H]4C[C@H](OCc5ccccc5)CC[C@]4(C)[C@H]3C[C@H](O)[C@]12C [369 (taurine conj.)] | 50 | 18 | – | –
6 | C[C@H](CCC(=O)O)[C@H]1CC[C@H]2[C@@H]3[C@H](O)C[C@@H]4C[C@@H](OCCNC(=O)CCC(=O)NCCCNC(=O)CC[C@@H](C)[C@H]5CC[C@H]6[C@@H]7[C@H](O)C[C@@H]8C[C@H](OC(c9ccccc9)c9ccccc9)CC[C@]8(C)[C@H]7C[C@H](O)[C@]56C)CC[C@]4(C)[C@H]3C[C@H](O)[C@]12C [Example 170] | – | – | 14 | 25
7 | C[C@H](CCC(=O)O)[C@H]1CC[C@H]2[C@@H]3[C@H](O)C[C@@H]4C[C@@H](OCCNC(=O)CCC(=O)NCCCNC(=O)CC[C@@H](C)[C@H]5CC[C@H]6[C@@H]7[C@H](O)C[C@@H]8C[C@H](OCc9ccccc9)CC[C@]8(C)[C@H]7C[C@H](O)[C@]56C)CC[C@]4(C)[C@H]3CC[C@]12C [Example 191] | – | – | 29 | 58
8 | C[C@H](CCC(=O)NCCO[C@H]1CC[C@@]2(C)[C@@H](C1)C[C@@H](O)[C@@H]1[C@@H]2C[C@H](O)[C@]2(C)[C@@H]([C@H](C)CCC(=O)O)CC[C@@H]12)[C@H]1CC[C@H]2[C@@H]3[C@H](O)C[C@@H]4C[C@H](O)CC[C@]4(C)[C@H]3C[C@H](O)[C@]12C [Example 368] | – | – | 18 | 45
9 | C[C@H](CCC(=O)NCCO[C@H]1CC[C@@]2(C)[C@@H](C1)C[C@@H](O)[C@@H]1[C@@H]2C[C@H](O)[C@]2(C)[C@@H]([C@H](C)CCC(=O)O)CC[C@@H]12)[C@H]1CC[C@H]2[C@@H]3[C@H](O)C[C@@H]4C[C@H](OCc5ccccc5)CC[C@]4(C)[C@H]3C[C@H](O)[C@]12C [Example 369] | – | – | 20 | 55
10 | C[C@H](CCC(=O)NCCS(=O)(=O)O)[C@H]1CC[C@H]2[C@@H]3[C@H](O)C[C@@H]4C[C@@H](OCCNC(=O)CCC(=O)NCCCNC(=O)CC[C@@H](C)[C@H]5CC[C@H]6[C@@H]7[C@H](O)C[C@@H]8C[C@H](OC(c9ccccc9)c9ccccc9)CC[C@]8(C)[C@H]7C[C@H](O)[C@]56C)CC[C@]4(C)[C@H]3C[C@H](O)[C@]12C [Example 527] | – | – | 10 | 20
11 | C[C@H](CCC(=O)NCC(=O)O)[C@H]1CC[C@H]2[C@@H]3[C@H](O)C[C@@H]4C[C@@H](OCCNC(=O)CCC(=O)NCCCNC(=O)CC[C@@H](C)[C@H]5CC[C@H]6[C@@H]7[C@H](O)C[C@@H]8C[C@H](OC(c9ccccc9)c9ccccc9)CC[C@]8(C)[C@H]7C[C@H](O)[C@]56C)CC[C@]4(C)[C@H]3C[C@H](O)[C@]12C [Example 528] | – | – | 16 | 26
12 | COC(=O)CC[C@@H](C)[C@H]1CC[C@H]2[C@@H]3[C@H](O)C[C@@H]4C[C@@H](OCCNC(=O)CCC(=O)NCCO[C@H]5CC[C@@]6(C)[C@@H](C5)C[C@@H](O)[C@@H]5[C@@H]6C[C@H](O)[C@]6(C)[C@@H]([C@H](C)CCC(=O)OC)CC[C@@H]56)CC[C@]4(C)[C@H]3C[C@H](O)[C@]12C [Example 531] | – | – | 18 | > 50
13 | C[C@H](CCC(=O)O)[C@H]1CC[C@H]2[C@@H]3[C@H](O)C[C@@H]4C[C@@H](OCCNC(=O)CCC(=O)NCCO[C@H]5CC[C@@]6(C)[C@@H](C5)C[C@@H](O)[C@@H]5[C@@H]6C[C@H](O)[C@]6(C)[C@@H]([C@H](C)CCC(=O)O)CC[C@@H]56)CC[C@]4(C)[C@H]3C[C@H](O)[C@]12C [Example 532] | – | – | 10 | 30
